Test results reported in article PMC8471306, “Chemical Changes of Hydroperoxy-, Epoxy-, Keto- and Hydroxy-Model Lipids under Simulated Gastric Conditions” (Foods, 2021).
Values joined by “and” are separate entries in the source; they are usually repeats but may differ in a detail not shown here. Identical values can stand only once. “Also recorded” adds a separate entry of the source. Each block holds one molecule with its values, some of them ahead of it.

How the values were obtained:
[1] = In vitro simulated gastric digestion of model lipid emulsions in SGF, quantitation by GC-FID; assay type: in vitro ADME
Protocol: Emulsions of model lipid compounds were prepared in a simulated gastric fluid (SGF) formulated as described in the United States Pharmacopeia. SGF contained 3.2% w/v pepsin in 0.03 M NaCl and 0.1 M HCl (pH 1.2). Different sample solutions of model lipid compounds in SGF were prepared and methyl C21:0 was added as an internal standard (IS) for quantitative purposes. Homogenization was performed in an Omnimixer (Sorvall, Newton, PA, USA) at 10,000 rpm for 5 min at 1-min intervals, as described elsewhere. […] Samples of 1, 2, 3 and 4 mL (~16 μmol mL^−1 of each compound) were used. • - Two methyl 9,10-epoxysteatate emulsions, i.e., 5 and 15 mg mL^−1, both with 10 mg mL^−1 of the IS, in SGF. Samples of 1, 2, 3 and 4 mL (16 and 46 μmol mL^−1) were used. • - Three methyl linoleate hydroperoxides emulsions, i.e., 5, 7.5 and 10 mg mL^−1, with 1, 1.5 and 2 mg mL^−1 of the IS, respectively. Additional methyl hydroperoxides emulsions at the same concentrations were prepared adjusting the pH to 3.0 and 6.6 with 1 M NaHCO3. Samples of 4 mL (15.3, 23.0 and 30.6 μmol mL^−1) were used.
Gastric digestion was simulated using a classical in vitro model. Emulsions of lipid model compounds prepared as described in Section 2.3. were used for digestion assays immediately after preparation. Triplicate emulsions were incubated in a shaking water bath for 3 h at 37 °C/100 rpm.
Lipids were thoroughly extracted with 1:1 hexane:diethyl ether after vigorous shaking in a vortex and centrifugation at 2000 rpm. Hexane and diethyl ether have been previously used for lipid extraction of oil-in-water emulsions. The extraction procedure was repeated three times and the organic extracts were pooled and washed with distilled water. After filtration through anhydrous sodium sulfate, the solvent was evaporated in a rotatory evaporator under reduced pressure at room temperature and the extracted lipids were dried using a stream of nitrogen.
Initial and digested samples were analyzed by gas-liquid chromatography using an HP 6890 Series chromatograph (Hewlett-Packard, Avondale, PA, USA) equipped with a split-splitless injector operating in the split mode with a 40:1 split ratio at 250 °C, a J&W DB-Wax fused-silica capillary column, 60 m × 0.25 mm I.D., film thickness 0.25 μm (J&W Scientific, Folsom, CA, USA) and a flame ionization detector that was used at 250 °C. The analyses were run using hydrogen as carrier gas at 1 mL min^−1 and under isothermal conditions using 230 °C for 25 min. Injections were carried out automatically using a 6890 Series autosampler (Agilent Technologies, Karlsruhe, Germany). A volume of 1 μL of sample dissolved in diethyl ether (~5 mg mL^−1) was analyzed.

[2] = rat, in vivo; cited from earlier work
[3] = equimolar mixture, 16 μmol mL^−1 each, sample volume 1 mL, SGF pH 1.2, 3 h 37 °C
[4] = equimolar mixture, 16 μmol mL^−1 each, sample volume 2 mL, SGF pH 1.2, 3 h 37 °C
[5] = equimolar mixture, 16 μmol mL^−1 each, sample volume 3 mL, SGF pH 1.2, 3 h 37 °C
[6] = equimolar mixture, 16 μmol mL^−1 each, sample volume 4 mL, SGF pH 1.2, 3 h 37 °C
[7] = tested alone, initial 15.79 μmol mL^−1, sample volume 1 mL, SGF pH 1.2
[8] = tested alone, initial 15.79 μmol mL^−1, sample volume 2 mL, SGF pH 1.2
[9] = tested alone, initial 15.79 μmol mL^−1, sample volume 3 mL, SGF pH 1.2
[10] = tested alone, initial 15.79 μmol mL^−1, sample volume 4 mL, SGF pH 1.2
[11] = tested alone, initial 46.03 μmol mL^−1, sample volume 1 mL, SGF pH 1.2
[12] = tested alone, initial 46.03 μmol mL^−1, sample volume 2 mL, SGF pH 1.2
[13] = tested alone, initial 46.03 μmol mL^−1, sample volume 3 mL, SGF pH 1.2
[14] = tested alone, initial 46.03 μmol mL^−1, sample volume 4 mL, SGF pH 1.2

- Losses after in vitro gastric digestion, range over all samples ([1]; all concentrations and sample volumes tested, SGF pH 1.2): 17.8–58.8%
- Final Concentration [1, 3]: 7.52 ± 0.73 a μmol mL^−1
- Loss % after Digestion [1, 3]: 52.7 ± 4.6 B %
- Final Concentration [1, 4]: 7.79 ± 0.65 ab μmol mL^−1
- Loss % after Digestion [1, 4]: 51.3 ± 4.0 AB %
- Final Concentration [1, 5]: 8.89 ± 0.43 b μmol mL^−1
- Loss % after Digestion [1, 5]: 44.4 ± 2.7 A %
- Final Concentration [1, 6]: 9.55 ± 0.40 b μmol mL^−1
- Loss % after Digestion [1, 6]: 40.3 ± 2.5 A %
- Final [9,10-Epoxystearate] [1, 7]: 6.50 ± 1.07 a μmol mL^−1
- Loss % after Digestion [1, 7]: 58.8 ± 6.8 D %
- Final [9,10-Epoxystearate] [1, 8]: 7.20 ± 0.80 ab μmol mL^−1
- Loss % after Digestion [1, 8]: 54.4 ± 5.0 CD %
- Final [9,10-Epoxystearate] [1, 9]: 8.00 ± 0.48 ab μmol mL^−1
- Loss % after Digestion [1, 9]: 49.3 ± 3.0 CD %
- Final [9,10-Epoxystearate] [1, 10]: 8.97 ± 0.60 b μmol mL^−1
- Loss % after Digestion [1, 10]: 43.2 ± 3.8 BC %
- Final [9,10-Epoxystearate] [1, 11]: 26.16 ± 2.24 a μmol mL^−1
- Loss % after Digestion [1, 11]: 43.2% and 43.2 ± 4.9 BC %
- Final [9,10-Epoxystearate] [1, 12]: 30.53 ± 1.48 a μmol mL^−1
- Loss % after Digestion [1, 12]: 33.7 ± 3.2 B %
- Final [9,10-Epoxystearate] [1, 13]: 35.06 ± 0.81 b μmol mL^−1
- Loss % after Digestion [1, 13]: 23.8 ± 1.8 A %
- Final [9,10-Epoxystearate] [1, 14]: 37.82 ± 1.96 b μmol mL^−1
- Loss % after Digestion [1, 14]: 17.8% and 17.8 ± 4.3 A %
Molecule: CCCCCCCCC1OC1CCCCCCCC(=O)OC (stereo not drawn) [methyl 9,10-epoxystearate, Methyl trans-9,10-epoxystearate]

- Final Concentration [1, 3]: 15.92 ± 0.40 c μmol mL^−1
- Final Concentration [1, 4]: 15.45 ± 1.03 c μmol mL^−1
- Final Concentration [1, 5]: 16.13 ± 0.39 c μmol mL^−1
- Final Concentration [1, 6]: 15.51 ± 1.13 c μmol mL^−1
Molecule: CCCCCCC(O)CCCCCCCCCCC(=O)OC (centres unmarked) [methyl 12-hydroxystearate]

- Final Concentration [1, 3]: 16.11 ± 0.21 c μmol mL^−1
- Final Concentration [1, 4]: 15.80 ± 0.37 c μmol mL^−1
- Final Concentration [1, 5]: 15.88 ± 0.73 c μmol mL^−1
- Final Concentration [1, 6]: 16.15 ± 0.58 c μmol mL^−1
Molecule: CCCCCCC(=O)CCCCCCCCCCC(=O)OC [methyl 12-oxostearate]
- Change after simulated gastric digestion (in words) ([1]; equimolar mixture, 16 μmol mL^−1 each, 1-4 mL, SGF pH 1.2): remained unaltered; also recorded: remained at the starting levels

Molecule: linoleic acid hydroperoxides
- Share decomposed to a variety of compounds in the stomach [2]: about 70%
